Measured values as given in the supplement of paper PMC10627819.

What was measured:
Assay in all cases: Bliss interaction score (quartile over a dose matrix) (fitness difference); higher = more antagonism (negative = synergy)
[1] = tested on: B. subtilis 168
How it was run: (§1)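 Fitness was defined as normalised growth: OD595 at the start of stationary phase divided by the plate's robust no-drug mean and capped at 1. Single-drug fitness was inferred from combination measurements. The Bliss score is observed fitness minus the product of the single-drug values, summarised by quartiles across technical, biological and donor/recipient replicates.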

[2] = tested on: S. pneumoniae D39V
How it was run: as §1

[3] = tested on: S. aureus DSM 20231
How it was run: as §1

[4] = tested on: S. aureus Newman
How it was run: as §1
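Also: first quartile when negative (synergy) and third quartile when positive (antagonism).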

SMILES	Bliss interaction score [1]	Bliss interaction score [2]	Bliss interaction score [3]	Bliss interaction score [4]	Bliss interaction score ([1]; main component drawn)	Bliss interaction score ([2]; main component drawn)	Bliss interaction score ([3]; main component drawn)	Bliss interaction score ([4]; main component drawn)
O=C(O)[C@H]1/C(=C/CO)O[C@@H]2CC(=O)N21 [Clavulanic] + CN(N=O)C(=O)N[C@@H](C=O)[C@@H](O)[C@H](O)[C@H](O)CO [Streptozotocin]	-0.0541	0.059	-0.0853	0.197				
O=C(O)[C@H]1/C(=C/CO)O[C@@H]2CC(=O)N21 [Clavulanic] + CN[C@@H]1[C@H](O)[C@H](NC)[C@H]2O[C@@]3(O)C(=O)C[C@@H](C)O[C@H]3O[C@@H]2[C@H]1O [Spectinomycin]	0.0479	-0.0465	0.137	0.104				
O=C(O)[C@H]1/C(=C/CO)O[C@@H]2CC(=O)N21 [Clavulanic] + CN[C@H](CC(C)C)C(=O)N[C@H]1C(=O)N[C@@H](CC(N)=O)C(=O)N[C@H]2C(=O)N[C@H]3C(=O)N[C@H](C(=O)N[C@H](C(=O)O)c4cc(O)cc(O)c4-c4cc3ccc4O)[C@H](O)c3ccc(c(Cl)c3)Oc3cc2cc(c3O[C@@H]2O[C@H](CO)[C@@H](O)[C@H](O)[C@H]2O[C@H]2C[C@](C)(N)[C@H](O)[C@H](C)O2)Oc2ccc(cc2Cl)[C@H]1O [Vancomycin]	-0.136	-0.0704	0.0812	-0.0409				
O=C(O)[C@H]1/C(=C/CO)O[C@@H]2CC(=O)N21 [Clavulanic] + CN[C@H](CC(C)C)C(=O)N[C@H]1C(=O)N[C@@H](CC(N)=O)C(=O)N[C@H]2C(=O)N[C@H]3C(=O)N[C@H](C(=O)N[C@H](C(=O)O)c4cc(O)cc(O)c4-c4cc3ccc4O)[C@H](O[C@H]3C[C@](C)(N)[C@@H](O)[C@H](C)O3)c3ccc(c(Cl)c3)Oc3cc2cc(c3O[C@@H]2O[C@H](CO)[C@@H](O)[C@H](O)[C@H]2O[C@H]2C[C@](C)(NCc3ccc(-c4ccc(Cl)cc4)cc3)[C@@H](O)[C@H](C)O2)Oc2ccc(cc2Cl)[C@H]1O [Oritavancin]	-0.0388	0.0545	0.0726	0.197				
O=C(O)[C@H]1/C(=C/CO)O[C@@H]2CC(=O)N21 [Clavulanic] + CO[C@@H]1[C@@H](OC(N)=O)[C@@H](O)[C@H](Oc2ccc3c(O)c(NC(=O)c4ccc(O)c(CC=C(C)C)c4)c(=O)oc3c2C)OC1(C)C [Novobiocin]	0.0384	-0.0784	0.116	0.177				
O=C(O)[C@H]1/C(=C/CO)O[C@@H]2CC(=O)N21 [Clavulanic] + CO[C@@]12[C@H](COC(N)=O)C3=C(C(=O)C(C)=C(N)C3=O)N1C[C@@H]1N[C@@H]12 [MitomycinC]	-0.113	-0.0718	-0.0996	0.129				
O=C(O)[C@H]1/C(=C/CO)O[C@@H]2CC(=O)N21 [Clavulanic] + CO[C@H]1/C=C/O[C@@]2(C)Oc3c(C)c(O)c4c(O)c(c(/C=N/N5CCN(C)CC5)c(O)c4c3C2=O)NC(=O)/C(C)=C\C=C\[C@H](C)[C@H](O)[C@@H](C)[C@@H](O)[C@@H](C)[C@H](OC(C)=O)[C@@H]1C [Rifampicin]	0.0612	-0.0766	0.112	-0.0368				
O=C(O)[C@H]1/C(=C/CO)O[C@@H]2CC(=O)N21 [Clavulanic] + COc1c(N2C[C@@H]3CCCN[C@@H]3C2)c(F)cc2c(=O)c(C(=O)O)cn(C3CC3)c12 [Moxifloxacin]	-0.0241	0.062	-0.0739	0.218				
O=C(O)[C@H]1/C(=C/CO)O[C@@H]2CC(=O)N21 [Clavulanic] + COc1cc(Cc2cnc(N)nc2N)cc(OC)c1OC [Trimethoprim]	0.101	0.116	-0.186	0.221				
O=C(O)[C@H]1/C(=C/CO)O[C@@H]2CC(=O)N21 [Clavulanic] + COc1ccc(C[C@H](N)C(=O)N[C@H]2[C@@H](O)[C@H](n3cnc4c(N(C)C)ncnc43)O[C@@H]2CO)cc1 [Puromycin]	0.0481	0.0764	0.0964	-0.0706				
O=C(O)[C@H]1/C(=C/CO)O[C@@H]2CC(=O)N21 [Clavulanic] + COc1cccc2c1C(=O)c1c(O)c3c(c(O)c1C2=O)C[C@@](O)(C(=O)CO)C[C@@H]3O[C@H]1C[C@H](N)[C@H](O)[C@H](C)O1 [Doxorubicin]	0.067	0.0444	0.0451	0.0836				
O=C(O)[C@H]1/C(=C/CO)O[C@@H]2CC(=O)N21 [Clavulanic] + C[C@@H]1O[C@@H]1P(=O)(O)O [Fosfomycin]	-0.089	-0.0291	0.0474	0.258				
O=C(O)[C@H]1/C(=C/CO)O[C@@H]2CC(=O)N21 [Clavulanic] + C[C@@H](O)[C@H]1C(=O)N2C(C(=O)O)=C(SCCNC=N)C[C@H]12 [Imipenem]	0.108	0.0559	0.094	-0.0736				
O=C(O)[C@H]1/C(=C/CO)O[C@@H]2CC(=O)N21 [Clavulanic] + C[C@H]1COc2c(N3CCN(C)CC3)c(F)cc3c(=O)c(C(=O)O)cn1c23 [Levofloxacin]	-0.024	-0.197	-0.222	0.242				
O=C(O)[C@H]1/C(=C/CO)O[C@@H]2CC(=O)N21 [Clavulanic] + C[C@H]1c2cccc(O)c2C(=O)C2=C(O)[C@]3(O)C(=O)C(C(N)=O)=C(O)[C@@H](N(C)C)[C@@H]3[C@@H](O)[C@@H]21 [Doxycycline]	0.0656	-0.0431	-0.273	0.268				
O=C(O)[C@H]1/C(=C/CO)O[C@@H]2CC(=O)N21 [Clavulanic] + C[n+]1ccc(-c2cc[n+](C)cc2)cc1 [Paraquat]	-0.0541	0.0522	0.0962	-0.0709				
O=C(O)[C@H]1/C(=C/CO)O[C@@H]2CC(=O)N21 [Clavulanic] + Cc1cc(NS(=O)(=O)c2ccc(N)cc2)no1 [Sulfamethoxazol]	0.0509	0.0674	0.0966	-0.0365				

SMILES	Bliss interaction score [1]	Bliss interaction score [2]	Bliss interaction score [3]	Bliss interaction score [4]	Bliss interaction score ([1]; main component drawn)	Bliss interaction score ([2]; main component drawn)	Bliss interaction score ([3]; main component drawn)	Bliss interaction score ([4]; main component drawn)
O=C(O)[C@H]1/C(=C/CO)O[C@@H]2CC(=O)N21 [Clavulanic] + Cc1ncc([N+](=O)[O-])n1CCO [Metronidazole]	0.0385	0.0632	0.0966	-0.112				
O=C(O)[C@H]1/C(=C/CO)O[C@@H]2CC(=O)N21 [Clavulanic] + Cc1onc(-c2ccccc2)c1C(=O)N[C@@H]1C(=O)N2[C@@H]1SC(C)(C)[C@@H]2C(=O)O [Oxacillin]	0.0555	-0.051	0.0346	0.0727				
O=C(O)[C@H]1/C(=C/CO)O[C@@H]2CC(=O)N21 [Clavulanic] + Clc1ccc(COC(Cn2ccnc2)c2ccc(Cl)cc2Cl)c(Cl)c1 [Miconazole]	0.0639	0.0698	0.101	-0.0736				
O=C(O)[C@H]1/C(=C/CO)O[C@@H]2CC(=O)N21 [Clavulanic] + Cn1nnc(-c2ccc(-c3ccc(N4C[C@H](CO)OC4=O)cc3F)cn2)n1 [Tedizolid]	0.0942	-0.0878	-0.18	0.255				
O=C(O)[C@H]1/C(=C/CO)O[C@@H]2CC(=O)N21 [Clavulanic] + N[C@@H]1CONC1=O [CycloserineD]	0.0614	-0.0906	0.116	-0.0992				
O=C(O)[C@H]1/C(=C/CO)O[C@@H]2CC(=O)N21 [Clavulanic] + O=C1CN(/N=C/c2ccc([N+](=O)[O-])o2)C(=O)N1 [Nitrofurantoin]	0.0868	0.0879	0.039	0.102				
O=C(O)[C@H]1/C(=C/CO)O[C@@H]2CC(=O)N21 [Clavulanic] + O=C(O[C@@H]1Cc2c(O)cc(O)cc2O[C@@H]1c1cc(O)c(O)c(O)c1)c1cc(O)c(O)c(O)c1 [EGCG]	-0.0667	0.0628	0.0689	0.168				
O=C(O)[C@H]1/C(=C/CO)O[C@@H]2CC(=O)N21 [Clavulanic] + Oc1cc(Cl)ccc1Oc1ccc(Cl)cc1Cl [Triclosan]	0.0658	0.0445	0.081	-0.0656				
CNC(C)C1CCC(N)C(OC2C(N)CC(N)C(OC3OCC(C)(O)C(NC)C3O)C2O)O1 (stereo unspecified) [Gentamicin] + CC1(C)S[C@@H]2[C@H](NC(=O)Cc3ccccc3)C(=O)N2[C@H]1C(=O)O [PenicillinG]					0.0952	0.0914	0.0582	-0.0512
CNC(C)C1CCC(N)C(OC2C(N)CC(N)C(OC3OCC(C)(O)C(NC)C3O)C2O)O1 (stereo unspecified) [Gentamicin] + CC[C@H]1OC(=O)[C@H](C)C(=O)[C@H](C)[C@@H](O[C@@H]2O[C@H](C)C[C@H](N(C)C)[C@H]2O)[C@](C)(OC)C[C@@H](C)C(=O)[C@H](C)[C@H]2N(CCCCn3cnc(-c4cccnc4)c3)C(=O)O[C@]12C [Telithromycin]					0.0903	0.0542	0.0492	0.0544
CNC(C)C1CCC(N)C(OC2C(N)CC(N)C(OC3OCC(C)(O)C(NC)C3O)C2O)O1 (stereo unspecified) [Gentamicin] + CN[C@H](CC(C)C)C(=O)N[C@H]1C(=O)N[C@@H](CC(N)=O)C(=O)N[C@H]2C(=O)N[C@H]3C(=O)N[C@H](C(=O)N[C@H](C(=O)O)c4cc(O)cc(O)c4-c4cc3ccc4O)[C@H](O[C@H]3C[C@](C)(N)[C@@H](O)[C@H](C)O3)c3ccc(c(Cl)c3)Oc3cc2cc(c3O[C@@H]2O[C@H](CO)[C@@H](O)[C@H](O)[C@H]2O[C@H]2C[C@](C)(NCc3ccc(-c4ccc(Cl)cc4)cc3)[C@@H](O)[C@H](C)O2)Oc2ccc(cc2Cl)[C@H]1O [Oritavancin]					0.048	0.0748	-0.0507	0.0919
CNC(C)C1CCC(N)C(OC2C(N)CC(N)C(OC3OCC(C)(O)C(NC)C3O)C2O)O1 (stereo unspecified) [Gentamicin] + CO[C@@]12[C@H](COC(N)=O)C3=C(C(=O)C(C)=C(N)C3=O)N1C[C@@H]1N[C@@H]12 [MitomycinC]					-0.0792	0.0575	-0.0573	0.0445
CNC(C)C1CCC(N)C(OC2C(N)CC(N)C(OC3OCC(C)(O)C(NC)C3O)C2O)O1 (stereo unspecified) [Gentamicin] + Oc1cc(Cl)ccc1Oc1ccc(Cl)cc1Cl [Triclosan]					-0.17	0.0731	-0.0821	0.0182
Clc1ccc(COC(Cn2ccnc2)c2ccc(Cl)cc2Cl)c(Cl)c1 (stereo unspecified) [Miconazole] + CC1(C)S[C@@H]2[C@H](NC(=O)Cc3ccccc3)C(=O)N2[C@H]1C(=O)O [PenicillinG]	0.0707	0.106	0.0525	-0.0331				
Clc1ccc(COC(Cn2ccnc2)c2ccc(Cl)cc2Cl)c(Cl)c1 (stereo unspecified) [Miconazole] + CCCCCCCCCC(=O)N[C@@H]1[C@H]([C@@H]([C@H](O[C@H]1OC2=C3C=C4C=C2OC5=C(C=C(C=C5)[C@H]([C@H]6C(=O)N[C@@H](C7=C(C(=CC(=C7)O)OC8[C@H]([C@H]([C@@H]([C@H](O8)CO)O)O)O)C9=C(C=CC(=C9)[C@H](C(=O)N6)NC(=O)[C@@H]4NC(=O)[C@@H]1C2=CC(=CC(=C2)OC2=C(C=CC(=C2)[C@H](C(=O)N[C@H](CC2=CC(=C(O3)C=C2)Cl)C(=O)N1)N)O)O)O)C(=O)O)O[C@H]1[C@@H]([C@H]([C@@H]([C@H](O1)CO)O)O)NC(=O)C)Cl)CO)O)O [Teicoplanin]					0.117	0.115	-0.0409	-0.0558
Clc1ccc(COC(Cn2ccnc2)c2ccc(Cl)cc2Cl)c(Cl)c1 (stereo unspecified) [Miconazole] + CC[C@H]1OC(=O)[C@H](C)C(=O)[C@H](C)[C@@H](O[C@@H]2O[C@H](C)C[C@H](N(C)C)[C@H]2O)[C@](C)(OC)C[C@@H](C)C(=O)[C@H](C)[C@H]2N(CCCCn3cnc(-c4cccnc4)c3)C(=O)O[C@]12C [Telithromycin]	0.0586	0.104	0.04	0.0508				
Clc1ccc(COC(Cn2ccnc2)c2ccc(Cl)cc2Cl)c(Cl)c1 (stereo unspecified) [Miconazole] + CN[C@H](CC(C)C)C(=O)N[C@H]1C(=O)N[C@@H](CC(N)=O)C(=O)N[C@H]2C(=O)N[C@H]3C(=O)N[C@H](C(=O)N[C@H](C(=O)O)c4cc(O)cc(O)c4-c4cc3ccc4O)[C@H](O[C@H]3C[C@](C)(N)[C@@H](O)[C@H](C)O3)c3ccc(c(Cl)c3)Oc3cc2cc(c3O[C@@H]2O[C@H](CO)[C@@H](O)[C@H](O)[C@H]2O[C@H]2C[C@](C)(NCc3ccc(-c4ccc(Cl)cc4)cc3)[C@@H](O)[C@H](C)O2)Oc2ccc(cc2Cl)[C@H]1O [Oritavancin]	-0.0225	-0.0639	-0.0286	-0.0754				
